From the supplement of paper PMC10307832

Tests used:
Assay in all cases: relative viability (nuclei count vs DMSO), 5 days (fraction); higher = more cells survive
[1] = compound: CCOc1cc2ncc(C#N)c(Nc3ccc(OCc4ccccn4)c(Cl)c3)c2cc1NC(=O)/C=C/CN(C)C [Neratinib]
Method in brief: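 Lung cancer cell lines were seeded into 1536-well plates, kept overnight at 37 °C and pinned with five library-drug doses (not always all listed) spaced by √10. After 5 days, nuclei were Hoechst-stained, imaged at 4× and counted with MetaXpress. Viability is treated-well nuclei over vehicle-well nuclei, taken as a median across plates. Plates needed control CV below 25% and at least one doubling.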

[2] = compound: CCOc1cc2ncc(C#N)c(Nc3ccc(OCc4ccccn4)c(Cl)c3)c2cc1NC(=O)/C=C/CN(C)C [Neratinib] + Cc1cc(Nc2cc(N3CCN(C)CC3)nc(Sc3ccc(NC(=O)C4CC4)cc3)n2)n[nH]1 [Tozasertib] (partner 0.1 µM)
Method in brief: (§1)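 One day after seeding in 1536-well plates, lung cancer cell lines were dosed by pin tool. Dosing was either single-drug or a fixed anchor-drug dose plus five library-drug doses (not always all listed) in √10 steps. After 5 days, nuclei were stained in one fix-and-stain step and counted on 4× images, and relative viability is the nuclei count of treated wells over that of vehicle wells, given as the median of duplicate plates.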

[3] = compound: CCOc1cc2ncc(C#N)c(Nc3ccc(OCc4ccccn4)c(Cl)c3)c2cc1NC(=O)/C=C/CN(C)C [Neratinib] + CCNC(=O)c1noc(-c2cc(C(C)C)c(O)cc2O)c1-c1ccc(CN2CCOCC2)cc1 [Luminespib] (partner 0.01 µM)
Method in brief: as §1

[4] = compound: CCOc1cc2ncc(C#N)c(Nc3ccc(OCc4ccccn4)c(Cl)c3)c2cc1NC(=O)/C=C/CN(C)C [Neratinib] + COc1cccc2cc(-c3nc([C@H]4CC[C@H](C(=O)O)CC4)n4ncnc(N)c34)[nH]c12 [OSI-027] (partner 0.5 µM)
Method in brief: as §1

[5] = compound: CCOc1cc2ncc(C#N)c(Nc3ccc(OCc4ccccn4)c(Cl)c3)c2cc1NC(=O)/C=C/CN(C)C [Neratinib] + COc1cc2c(Oc3ccc(NC(=O)C4(C(=O)Nc5ccc(F)cc5)CC4)cc3F)ccnc2cc1OCCCN1CCOCC1 [Foretinib] (partner 0.25 µM)
Method in brief: as §1

[6] = compound: CCOc1cc2ncc(C#N)c(Nc3ccc(OCc4ccccn4)c(Cl)c3)c2cc1NC(=O)/C=C/CN(C)C [Neratinib] + N=C(N)NC(=N)NCCc1ccccc1 [Phenformin] (partner 250 µM)
Method in brief: as §1

[7] = compound: CCOc1cc2ncc(C#N)c(Nc3ccc(OCc4ccccn4)c(Cl)c3)c2cc1NC(=O)/C=C/CN(C)C [Neratinib] + Cc1nc(Nc2ncc(C(=O)Nc3c(C)cccc3Cl)s2)cc(N2CCN(CCO)CC2)n1 [Dasatinib] (partner 0.075 µM)
Method in brief: as §1

[8] = compound: CCOc1cc2ncc(C#N)c(Nc3ccc(OCc4ccccn4)c(Cl)c3)c2cc1NC(=O)/C=C/CN(C)C [Neratinib] + O=C(CCCCCCC(=O)Nc1ccccc1)NO [Vorinostat] (partner 1 µM)
Method in brief: as §1

[9] = compound: CCOc1cc2ncc(C#N)c(Nc3ccc(OCc4ccccn4)c(Cl)c3)c2cc1NC(=O)/C=C/CN(C)C [Neratinib] + CC(=O)c1c(C)c2cnc(Nc3ccc(N4CCNCC4)cn3)nc2n(C2CCCC2)c1=O [Palbociclib] (partner 0.5 µM)
Method in brief: as §1

[10] = compound: CCOc1cc2ncc(C#N)c(Nc3ccc(OCc4ccccn4)c(Cl)c3)c2cc1NC(=O)/C=C/CN(C)C [Neratinib] + CC(=O)Nc1cccc(-n2c(=O)n(C3CC3)c(=O)c3c(Nc4ccc(I)cc4F)n(C)c(=O)c(C)c32)c1 [Trametinib] (partner 0.02 µM)
Method in brief: as §1

[11] = compound: CCOc1cc2ncc(C#N)c(Nc3ccc(OCc4ccccn4)c(Cl)c3)c2cc1NC(=O)/C=C/CN(C)C [Neratinib] + NC(=O)Nc1cc(-c2cccc(F)c2)sc1C(=O)N[C@H]1CCCNC1 [AZD7762] (partner 0.2 µM)
Method in brief: as §1

[12] = compound: CCOc1cc2ncc(C#N)c(Nc3ccc(OCc4ccccn4)c(Cl)c3)c2cc1NC(=O)/C=C/CN(C)C [Neratinib] + O=C(c1cc(Cc2n[nH]c(=O)c3ccccc23)ccc1F)N1CCN(C(=O)C2CC2)CC1 [Olaparib] (partner 8 µM)
Method in brief: as §1

[13] = compound: CCOc1cc2ncc(C#N)c(Nc3ccc(OCc4ccccn4)c(Cl)c3)c2cc1NC(=O)/C=C/CN(C)C [Neratinib] + Nc1nc2[nH]cc(CCc3ccc(C(=O)N[C@@H](CCC(=O)O)C(=O)O)cc3)c2c(=O)[nH]1 [Pemetrexed] (partner 0.2 µM)
Method in brief: as §1

[14] = compound: CCOc1cc2ncc(C#N)c(Nc3ccc(OCc4ccccn4)c(Cl)c3)c2cc1NC(=O)/C=C/CN(C)C [Neratinib] + Nc1ncn([C@H]2C[C@H](O)[C@@H](CO)O2)c(=O)n1 [Decitabine] (partner 2 µM)
Method in brief: as §1

NCI-H1623 was tested, and the relative viability ([1]; 0.03162 µM) was 0.903, the relative viability ([1]; 0.1 µM) was 0.755 and the relative viability ([1]; 0.3162 µM) was 0.333. It also gave a relative viability ([1]; 1 µM) of 0.271, a relative viability ([2]; first compound 0.01 µM) of 0.477 and a relative viability ([2]; first compound 0.03162 µM) of 0.424. The relative viability ([2]; first compound 0.3162 µM) was 0.224, the relative viability ([2]; first compound 1 µM) was 0.229 and the relative viability ([3]; first compound 0.01 µM) was 0.663. It also gave a relative viability ([3]; first compound 0.03162 µM) of 0.566, a relative viability ([3]; first compound 0.1 µM) of 0.401 and a relative viability ([3]; first compound 0.3162 µM) of 0.355. The relative viability ([3]; first compound 1 µM) was 0.341, the relative viability ([4]; first compound 0.01 µM) was 0.496 and the relative viability ([4]; first compound 0.03162 µM) was 0.376. The relative viability ([4]; first compound 0.1 µM) was 0.365, the relative viability ([4]; first compound 0.3162 µM) was 0.213 and the relative viability ([4]; first compound 1 µM) was 0.261. For the same cell line, the relative viability ([5]; first compound 0.01 µM) was 0.822, the relative viability ([5]; first compound 0.03162 µM) was 0.856 and the relative viability ([5]; first compound 0.1 µM) was 0.621. For the same cell line, the relative viability ([5]; first compound 0.3162 µM) was 0.31, the relative viability ([5]; first compound 1 µM) was 0.241 and the relative viability ([6]; first compound 0.01 µM) was 0.598. For the same cell line, the relative viability ([6]; first compound 0.03162 µM) was 0.589, the relative viability ([6]; first compound 0.1 µM) was 0.509 and the relative viability ([6]; first compound 0.3162 µM) was 0.337. For the same cell line, the relative viability ([6]; first compound 1 µM) was 0.236, the relative viability ([7]; first compound 0.01 µM) was 0.578 and the relative viability ([7]; first compound 0.03162 µM) was 0.538. The relative viability ([7]; first compound 0.1 µM) was 0.464, the relative viability ([7]; first compound 0.3162 µM) was 0.432 and the relative viability ([7]; first compound 1 µM) was 0.26.

In the case of NCI-H1648, the relative viability ([1]; 0.01 µM) is reported as 0.819, the relative viability ([1]; 0.03162 µM) is reported as 0.931 and the relative viability ([1]; 0.1 µM) is reported as 0.657. For the same cell line, the relative viability ([1]; 0.3162 µM) was 0.383, the relative viability ([1]; 1 µM) was 0.432 and the relative viability ([8]; first compound 0.01 µM) was 0.328. It also gave a relative viability ([8]; first compound 0.03162 µM) of 0.427, a relative viability ([8]; first compound 0.1 µM) of 0.283 and a relative viability ([8]; first compound 0.3162 µM) of 0.304. It also gave a relative viability ([8]; first compound 1 µM) of 0.368, a relative viability ([9]; first compound 0.01 µM) of 0.29 and a relative viability ([9]; first compound 0.03162 µM) of 0.265. It also gave a relative viability ([9]; first compound 0.1 µM) of 0.231, a relative viability ([9]; first compound 0.3162 µM) of 0.26 and a relative viability ([9]; first compound 1 µM) of 0.337. For the same cell line, the relative viability ([10]; first compound 0.01 µM) was 0.449, the relative viability ([10]; first compound 0.03162 µM) was 0.402 and the relative viability ([10]; first compound 0.1 µM) was 0.276. For the same cell line, the relative viability ([10]; first compound 0.3162 µM) was 0.262, the relative viability ([10]; first compound 1 µM) was 0.335 and the relative viability ([2]; first compound 0.01 µM) was 0.608. The relative viability ([2]; first compound 0.03162 µM) was 0.364, the relative viability ([2]; first compound 0.1 µM) was 0.54 and the relative viability ([2]; first compound 0.3162 µM) was 0.299. For the same cell line, the relative viability ([2]; first compound 1 µM) was 0.188, the relative viability ([11]; first compound 0.01 µM) was 0.676 and the relative viability ([11]; first compound 0.1 µM) was 0.491. It also gave a relative viability ([11]; first compound 0.3162 µM) of 0.552, a relative viability ([11]; first compound 1 µM) of 0.444 and a relative viability ([4]; first compound 0.01 µM) of 0.297. The relative viability ([4]; first compound 0.03162 µM) was 0.265, the relative viability ([4]; first compound 0.1 µM) was 0.303 and the relative viability ([4]; first compound 0.3162 µM) was 0.305. It also gave a relative viability ([4]; first compound 1 µM) of 0.278, a relative viability ([12]; first compound 0.01 µM) of 0.855 and a relative viability ([12]; first compound 0.03162 µM) of 0.917. The relative viability ([12]; first compound 0.1 µM) was 0.806, the relative viability ([12]; first compound 0.3162 µM) was 0.643 and the relative viability ([12]; first compound 1 µM) was 0.427. The relative viability ([13]; first compound 0.01 µM) was 0.836, the relative viability ([13]; first compound 0.03162 µM) was 0.799 and the relative viability ([13]; first compound 0.1 µM) was 0.663. The relative viability ([13]; first compound 0.3162 µM) was 0.685, the relative viability ([13]; first compound 1 µM) was 0.55 and the relative viability ([14]; first compound 0.01 µM) was 0.505. The relative viability ([14]; first compound 0.03162 µM) was 0.389, the relative viability ([14]; first compound 0.1 µM) was 0.384 and the relative viability ([14]; first compound 0.3162 µM) was 0.352. For the same cell line, the relative viability ([14]; first compound 1 µM) was 0.366.
